Test [1] concerns 5'GAG/3'CCC internal loop RNA (Cy5-labeled model of pri-miR-27a's Drosha site) (RNA, mismatch bulge abasic) CUGAGGUGAAACAUCCCAG
In words: microscale thermophoresis. As to conditions: 1x Binding Buffer; for Kd: 0.1% Tween-20, 10 nM Cy5-RNA, room temperature.

Test [2] has as its system fully paired RNA (loop mutated to a base pair) (RNA, hairpin) CUGAGGUGAAACAUCUCAG
The test is described as follows: microscale thermophoresis. Particulars: 1x Binding Buffer, 0.1% Tween-20, room temperature. (In MST a laser heats a spot of the sample, and binding alters the fluorescence response.)

The subject of test [3] is 5'CAG/3'GCC internal loop RNA (closing GC mutated to CG) (RNA, mismatch bulge abasic) CUCAGGUGAAACAUCCGAG
The test is described as follows: microscale thermophoresis. Particulars: 1x Binding Buffer, 0.1% Tween-20, room temperature; for Kd: no saturable binding.

Test [4] has as its system WT pri-miR-27a (unlabeled miR-27a precursor) (RNA, miRNA) GAGAGAGGCCCCGAAGCCUGUGCCUGGCCUGAGGAGCAGGGCUUAGCUGCUUGUGAGCAGGGUCCACACCAAGUCGUGUUCACAGUGGCUAAGUUCCGCCCCCCAGGCCCUCACCUCCUCUGGCCUUGCC
In words: competitive binding assay. As to conditions: 100 nM compound; competes with Cy5-labeled model of the Drosha site.

Test [5] has as its system mutated pri-miR-27a (both 5'GAG/3'CCC loops mutated to base pairs) (RNA, miRNA) GAGAGAGGCCCCGAAGCCUGUGCCUGGCCUGAGGAGCAGGGCUUAGCUGCUUGUGAGCAGGGUCCACACCAAGUCGUGUUCACAGUGGCUAAGUUCCGCUCCUCAGGCCCUCACCUCCUCUGGCCUUGCC
In words: competitive binding assay. As to conditions: 100 nM compound; competes with Cy5-labeled model of the Drosha site.

As to `C#CCN(CC(N)=O)C(=O)C[C@H](Cc1c[nH]c2ccccc12)NC(=O)[C@@H]1C[C@@H](NC(=O)Cn2c(=O)[nH]c3ccccc3c2=O)CN1`, the binding result in test [1] (0.1% Tween-20, room temperature) is “no”; in test [2], “no”; in test [3] it was “no”.
For orientation: Kd means the equilibrium constant for the complex coming apart. A higher Kd goes with lower affinity. Regarding `C#CCN(CC(N)=O)C(=O)C[C@H](Cc1c[nH]c2ccccc12)NC(=O)[C@@H]1C[C@H](NC(=O)Cn2c(=O)[nH]c3ccccc3c2=O)CN1`, the Kd in test [1] is 90 ± 20 nM; in test [3], more than 50000 nM; in test [4], 40 ± 30 nM. The binding entry in test [2] (no saturable binding) and in test [5] was “no” in each case.
On to `C#CCN(CC(N)=O)C(=O)[C@@H]1CCN1C(=O)[C@@H]1C[C@H](N)CN1C(=O)c1ccccc1C(=O)N1CCOCC1`, for which the Kd was 700 ± 100 nM in test [1] and more than 50000 nM in test [3]. For the same compound, the binding entry in test [2] (no saturable binding) is “no”.
For `C#CCN(CC(N)=O)C(=O)[C@H](Cc1ccccc1C#N)NC(=O)[C@@H]1C[C@H](NC(=O)[C@H]2CCCO2)CN1` the same measures were 530 ± 90 nM, more than 50000 nM and “no”.

These data come from paper PMC8833215 (2022).
